Calls of active or inactive are those of the source. No cut-off for these calls is given here.
What was measured:
[1] = molecular target: GABA-A receptor; anion channel (Homo sapiens) (UniProt P14867+P47870+P18507+P28472+P48169+Q99928+Q9UN88+P34903+O00591+O14764+Q8N1C3+P18505+P78334+P47869+P31644+Q16445); test: Binding affinity to GABAA (unknown origin) at 10 uM by radioligand binding assay relative to control; assay type: protein-complex assay
[2] = Metabolic stability in human liver microsomes assessed as intrinsic clearance at 1 uM incubated for 60 mins by LC-MS/MS analysis; assay type: ADME, Microsome; settings: read-out: CLH
[3] = Toxicity in Sprague-Dawley rat assessed as fasciculation 2.5 to 7.5 mg/kg, po administered once daily for 4 weeks; assay type: organism-based; settings: in vivo, 672 h, dose 2.5-7.5 mg/kg
[4] = molecular target: Cytochrome P450 1A2 (Homo sapiens, UniProt P05177); test: Inhibition of CYP1A2 in human liver microsomes in presence of NADPH by LC-MS/MS analysis; assay type: ADME, Microsome
Chain of Cytochrome P450 1A2 (P05177 whole entry): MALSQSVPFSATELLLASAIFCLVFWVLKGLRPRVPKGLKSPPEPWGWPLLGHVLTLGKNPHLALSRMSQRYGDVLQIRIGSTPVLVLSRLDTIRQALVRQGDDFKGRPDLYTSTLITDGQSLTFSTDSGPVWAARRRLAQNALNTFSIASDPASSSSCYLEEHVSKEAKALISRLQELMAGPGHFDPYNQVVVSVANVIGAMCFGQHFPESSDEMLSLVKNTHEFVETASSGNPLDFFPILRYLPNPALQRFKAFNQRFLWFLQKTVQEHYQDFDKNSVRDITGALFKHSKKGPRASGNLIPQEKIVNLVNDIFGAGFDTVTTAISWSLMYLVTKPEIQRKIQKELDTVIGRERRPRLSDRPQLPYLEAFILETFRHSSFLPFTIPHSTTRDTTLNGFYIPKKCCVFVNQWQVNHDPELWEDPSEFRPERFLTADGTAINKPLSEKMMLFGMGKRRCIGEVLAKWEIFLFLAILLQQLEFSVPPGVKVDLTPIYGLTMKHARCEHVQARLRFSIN

[5] = Toxicity in male Sprague-Dawley rat assessed as slow respiration at 7.5 mg/kg, po administered once daily for 4 weeks; assay type: organism-based; settings: in vivo, 672 h
[6] = Toxicity in male Beagle dog assessed as somnolence at 2.5 mg/kg, IG administered once daily for 4 weeks; assay type: organism-based, Canis lupus familiaris; settings: in vivo, po, 672 h
[7] = molecular target: Glucocorticoid receptor (Homo sapiens) (UniProt P04150); test: Binding affinity to GR receptor (unknown origin) at 10 uM by radioligand binding assay relative to control
[8] = Metabolic stability in rat liver microsomes assessed as intrinsic clearance at 1 uM incubated for 60 mins by LC-MS/MS analysis; assay type: ADME, Microsome; settings: read-out: CLH
[9] = Ratio of drug concentration in male Sprague-Dawley rat brain to plasma at 5 mg/kg, IG measured after 0.25 hrs by LC-MS/MS analysis; assay type: ADME, organism-based; settings: brain and plasma, po, read-out: BPR
[10] = Toxicity in female Sprague-Dawley rat assessed as change in urinalysis at 2.5 to 7.5 mg/kg, po administered once daily for 4 weeks and measured after 4 weeks; assay type: organism-based; settings: in vivo, 1344 h, dose 2.5-7.5 mg/kg, time 8 weeks
[11] = molecular target: Cytochrome P450 2C9 (Homo sapiens, UniProt P11712); test: Inhibition of CYP2C9 in human liver microsomes in presence of NADPH by LC-MS/MS analysis; assay type: ADME, Microsome
Chain of Cytochrome P450 2C9 (P11712 whole entry): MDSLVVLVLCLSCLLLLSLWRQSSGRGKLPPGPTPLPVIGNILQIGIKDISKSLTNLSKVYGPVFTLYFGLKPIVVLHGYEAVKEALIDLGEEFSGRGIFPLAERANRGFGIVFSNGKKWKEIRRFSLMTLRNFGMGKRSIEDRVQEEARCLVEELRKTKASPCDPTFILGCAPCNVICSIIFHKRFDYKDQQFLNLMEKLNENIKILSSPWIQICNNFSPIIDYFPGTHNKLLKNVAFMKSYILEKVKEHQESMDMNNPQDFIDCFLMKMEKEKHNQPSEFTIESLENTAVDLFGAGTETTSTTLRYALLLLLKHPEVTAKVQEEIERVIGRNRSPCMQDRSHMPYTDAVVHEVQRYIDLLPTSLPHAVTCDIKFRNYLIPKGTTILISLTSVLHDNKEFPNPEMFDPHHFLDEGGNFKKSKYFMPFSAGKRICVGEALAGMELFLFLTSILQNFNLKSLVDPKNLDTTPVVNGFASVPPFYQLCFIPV

[12] = molecular target: Kappa-type opioid receptor (Homo sapiens) (UniProt P41145); test: Binding affinity to op-kappa receptor (unknown origin) at 10 uM by radioligand binding assay relative to control
[13] = Cardiotoxicity in conscious cynomolgus monkey assessed as change in mean arterial pressure at 3.125 to 12.5 mg/kg, IG measured within 25 hrs; assay type: toxicity, organism-based, Macaca fascicularis; settings: in vivo, po, dose 3.125-12.5 mg/kg
[14] = Cardiotoxicity in conscious cynomolgus monkey assessed as good general health at 3.125 to 12.5 mg/kg, IG; assay type: toxicity, organism-based, Macaca fascicularis; settings: in vivo, po, dose 3.125-12.5 mg/kg
[15] = system: Mus musculus; test: Antipsychotic activity against MK-801 induced hypermobilization in male C57BL/6J mouse model assessed as reduction in hypermobilization state at 3 mg/kg, IG pretreated with compound followed by MK-801 addition and measured after 30 mins by open field test; assay type: functional, organism-based
[16] = Toxicity in female Beagle dog assessed as change in hematology at 0.75 to 2.5 mg/kg, IG administered once daily for 4 weeks and measured after 4 weeks; assay type: organism-based, Canis lupus familiaris; settings: in vivo, po, 1344 h, dose 0.75-2.5 mg/kg, time 8 weeks
[17] = Toxicity in female Sprague-Dawley rat assessed as minimal corneal neovascularization at 2.5 to 7.5 mg/kg, po administered once daily for 4 weeks and measured after 4 weeks; assay type: organism-based; settings: in vivo, 1344 h, dose 2.5-7.5 mg/kg, time 8 weeks
[18] = molecular target: Cytochrome P450 2C8 (Homo sapiens, UniProt P10632); test: Inhibition of CYP2C8 in human liver microsomes in presence of NADPH by LC-MS/MS analysis; assay type: ADME, Microsome
Chain of Cytochrome P450 2C8 (P10632 whole entry): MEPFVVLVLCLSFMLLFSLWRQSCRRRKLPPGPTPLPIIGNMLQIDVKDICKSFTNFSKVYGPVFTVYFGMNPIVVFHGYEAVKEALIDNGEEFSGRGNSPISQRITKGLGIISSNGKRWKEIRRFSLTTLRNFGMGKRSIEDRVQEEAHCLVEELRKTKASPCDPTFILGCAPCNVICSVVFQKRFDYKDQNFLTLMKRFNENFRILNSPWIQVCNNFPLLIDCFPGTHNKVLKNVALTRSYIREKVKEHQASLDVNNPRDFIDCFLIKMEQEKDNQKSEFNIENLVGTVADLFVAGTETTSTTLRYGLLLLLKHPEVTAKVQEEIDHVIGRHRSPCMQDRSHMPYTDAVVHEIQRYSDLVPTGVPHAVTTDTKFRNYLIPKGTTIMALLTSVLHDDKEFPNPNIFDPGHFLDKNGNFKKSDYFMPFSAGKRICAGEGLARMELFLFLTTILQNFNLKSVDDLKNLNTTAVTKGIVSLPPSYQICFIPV

[19] = Toxicity in Sprague-Dawley rat assessed as normal spontaneous movement at 2.5 to 7.5 mg/kg, po administered once daily for 4 weeks and measured after 4 weeks; assay type: organism-based; settings: in vivo, 1344 h, dose 2.5-7.5 mg/kg, time 8 weeks
[20] = molecular target: 5-hydroxytryptamine receptor 2B (Homo sapiens) (UniProt P41595); test: Binding affinity to 5-HT2B (unknown origin) at 10 uM by radioligand binding assay relative to control
Chain of 5-hydroxytryptamine receptor 2B (Homo sapiens) (P41595 whole entry): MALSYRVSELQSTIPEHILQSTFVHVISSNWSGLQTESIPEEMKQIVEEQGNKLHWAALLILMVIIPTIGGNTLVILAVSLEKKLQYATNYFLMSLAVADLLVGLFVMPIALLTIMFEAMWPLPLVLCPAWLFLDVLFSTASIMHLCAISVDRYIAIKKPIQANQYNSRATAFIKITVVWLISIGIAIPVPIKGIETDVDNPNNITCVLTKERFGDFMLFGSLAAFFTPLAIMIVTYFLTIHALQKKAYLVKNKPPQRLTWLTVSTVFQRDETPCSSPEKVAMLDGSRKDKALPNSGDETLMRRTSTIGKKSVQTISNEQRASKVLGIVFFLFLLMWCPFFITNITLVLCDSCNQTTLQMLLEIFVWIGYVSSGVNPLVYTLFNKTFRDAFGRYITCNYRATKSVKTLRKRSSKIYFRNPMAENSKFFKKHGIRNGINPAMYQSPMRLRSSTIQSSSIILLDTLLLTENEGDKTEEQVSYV

[21] = molecular target: Beta-2 adrenergic receptor (Homo sapiens) (UniProt P07550); test: Binding affinity to beta 2 receptor (unknown origin) at 10 uM by radioligand binding assay relative to control
Chain of Beta-2 adrenergic receptor (Homo sapiens) (P07550 whole entry, looked up): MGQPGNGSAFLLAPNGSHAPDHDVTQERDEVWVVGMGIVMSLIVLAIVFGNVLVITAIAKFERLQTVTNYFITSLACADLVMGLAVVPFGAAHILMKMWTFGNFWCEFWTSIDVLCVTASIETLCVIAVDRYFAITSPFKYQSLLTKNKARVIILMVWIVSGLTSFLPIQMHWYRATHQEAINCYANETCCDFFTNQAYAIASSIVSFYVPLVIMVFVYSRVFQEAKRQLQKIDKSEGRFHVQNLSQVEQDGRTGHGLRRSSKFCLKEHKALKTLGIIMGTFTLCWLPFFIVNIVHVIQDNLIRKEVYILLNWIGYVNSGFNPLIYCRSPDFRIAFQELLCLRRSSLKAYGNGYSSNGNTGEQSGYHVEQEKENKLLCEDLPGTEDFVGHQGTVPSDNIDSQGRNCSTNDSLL

[22] = molecular target: Muscarinic acetylcholine receptor M2 (Homo sapiens) (UniProt P08172); test: Binding affinity to M2 receptor (unknown origin) at 10 uM by radioligand binding assay relative to control
[23] = Toxicity in Sprague-Dawley rat assessed as stereotypy 2.5 to 7.5 mg/kg, po administered once daily for 4 weeks; assay type: organism-based; settings: in vivo, 672 h, dose 2.5-7.5 mg/kg
[24] = Toxicity in female Sprague-Dawley rat assessed as irritability at 7.5 mg/kg, po administered once daily for 4 weeks and measured after 4 weeks; assay type: organism-based; settings: in vivo, 1344 h, time 8 weeks
[25] = molecular target: Nav1.5 (Homo sapiens, UniProt Q14524); test: Binding affinity to human Nav1.5 receptor at 10 uM by radioligand binding assay relative to control; settings: read-out: Activity
Chain of Nav1.5 (Q14524 whole entry): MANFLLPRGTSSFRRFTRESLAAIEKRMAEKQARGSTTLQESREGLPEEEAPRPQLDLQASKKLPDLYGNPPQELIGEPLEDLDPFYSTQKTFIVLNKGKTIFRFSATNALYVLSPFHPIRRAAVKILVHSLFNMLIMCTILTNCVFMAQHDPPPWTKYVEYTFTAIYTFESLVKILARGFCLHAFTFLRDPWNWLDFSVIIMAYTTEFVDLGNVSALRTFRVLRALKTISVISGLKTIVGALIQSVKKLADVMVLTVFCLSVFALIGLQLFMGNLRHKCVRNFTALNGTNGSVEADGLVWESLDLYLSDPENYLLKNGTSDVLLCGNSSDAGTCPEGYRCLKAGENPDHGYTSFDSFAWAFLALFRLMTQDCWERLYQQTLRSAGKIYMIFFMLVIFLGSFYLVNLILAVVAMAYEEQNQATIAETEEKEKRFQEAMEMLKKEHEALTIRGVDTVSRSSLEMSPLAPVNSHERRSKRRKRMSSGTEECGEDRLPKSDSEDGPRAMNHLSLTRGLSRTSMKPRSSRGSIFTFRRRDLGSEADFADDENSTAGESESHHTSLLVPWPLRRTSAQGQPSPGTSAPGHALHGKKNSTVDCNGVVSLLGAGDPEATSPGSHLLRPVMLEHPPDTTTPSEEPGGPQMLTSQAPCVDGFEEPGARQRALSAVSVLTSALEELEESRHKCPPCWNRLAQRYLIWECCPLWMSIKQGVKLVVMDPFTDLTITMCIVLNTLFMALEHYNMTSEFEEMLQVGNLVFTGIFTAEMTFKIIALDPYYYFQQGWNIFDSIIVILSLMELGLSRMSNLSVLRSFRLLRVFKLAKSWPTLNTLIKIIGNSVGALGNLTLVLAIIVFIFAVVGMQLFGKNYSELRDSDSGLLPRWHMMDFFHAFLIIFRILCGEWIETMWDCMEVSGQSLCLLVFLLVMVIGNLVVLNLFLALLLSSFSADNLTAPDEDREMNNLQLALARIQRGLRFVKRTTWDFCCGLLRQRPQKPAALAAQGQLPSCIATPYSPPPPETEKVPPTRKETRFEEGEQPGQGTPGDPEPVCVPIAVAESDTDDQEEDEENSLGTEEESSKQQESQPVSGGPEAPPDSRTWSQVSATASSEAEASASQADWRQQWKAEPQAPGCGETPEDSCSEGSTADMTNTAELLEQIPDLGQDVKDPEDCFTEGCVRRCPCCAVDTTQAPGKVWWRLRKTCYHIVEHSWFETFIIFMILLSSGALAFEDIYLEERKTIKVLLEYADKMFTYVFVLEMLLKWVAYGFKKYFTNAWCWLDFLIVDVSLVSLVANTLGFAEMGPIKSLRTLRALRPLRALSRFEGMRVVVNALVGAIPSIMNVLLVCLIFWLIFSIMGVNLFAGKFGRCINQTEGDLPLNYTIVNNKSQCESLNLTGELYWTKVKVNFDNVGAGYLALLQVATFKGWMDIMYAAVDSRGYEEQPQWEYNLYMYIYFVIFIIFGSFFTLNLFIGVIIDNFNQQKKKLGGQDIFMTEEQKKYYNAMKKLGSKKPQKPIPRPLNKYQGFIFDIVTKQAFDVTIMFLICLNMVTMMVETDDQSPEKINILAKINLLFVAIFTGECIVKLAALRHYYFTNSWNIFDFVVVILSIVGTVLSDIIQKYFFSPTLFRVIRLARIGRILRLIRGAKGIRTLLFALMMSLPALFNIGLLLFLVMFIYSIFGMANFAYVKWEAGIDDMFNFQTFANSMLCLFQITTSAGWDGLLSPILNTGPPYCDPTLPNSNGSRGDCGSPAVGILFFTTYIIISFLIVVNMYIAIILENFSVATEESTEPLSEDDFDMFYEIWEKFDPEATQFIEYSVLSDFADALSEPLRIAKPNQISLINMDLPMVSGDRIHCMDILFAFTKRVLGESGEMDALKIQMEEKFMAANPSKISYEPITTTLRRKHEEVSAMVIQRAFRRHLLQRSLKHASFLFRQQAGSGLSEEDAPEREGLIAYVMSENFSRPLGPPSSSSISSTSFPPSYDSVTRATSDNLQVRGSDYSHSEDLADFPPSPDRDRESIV

[26] = Toxicity in male Sprague-Dawley rat assessed as change in prolactin level at 2.5 to 7.5 mg/kg, po administered once daily for 4 weeks and measured after 4 weeks; assay type: organism-based; settings: in vivo, 1344 h, dose 2.5-7.5 mg/kg, time 8 weeks
[27] = system: Mus musculus; test: Antipsychotic activity against methamphetamine-induced hyperlocomotion in male C57BL/6J mouse model assessed as reduction in hyperlocomotive state at 10 mg/kg, IG pretreated with compound followed by methamphetamine addition and measured after 30 mins by open field test; assay type: functional, organism-based
[28] = Cardiotoxicity in conscious cynomolgus monkey assessed as change in diastolic pressure at 3.125 to 12.5 mg/kg, IG measured within 25 hrs; assay type: toxicity, organism-based, Macaca fascicularis; settings: in vivo, po, dose 3.125-12.5 mg/kg
[29] = Toxicity in female Sprague-Dawley rat assessed as suppression of body weight gain at 7.5 mg/kg, po administered once daily for 4 weeks and measured weekly twice; assay type: organism-based; settings: in vivo, 672 h
[30] = molecular target: 5-hydroxytryptamine receptor 2C (Rattus norvegicus, UniProt P08909); test: Agonist activity at rat 5-HT2CR; assay type: functional
[31] = Toxicity in female Sprague-Dawley rat assessed as corneal epithelial degeneration at 7.5 mg/kg, po administered once daily for 4 weeks; assay type: organism-based; settings: in vivo, 672 h
[32] = molecular target: Neuronal acetylcholine receptor subunit alpha-7 (Homo sapiens) (UniProt P36544); test: Binding affinity to nACHR-alpha7 (unknown origin) at 10 uM by radioligand binding assay relative to control
[33] = Toxicity in female Sprague-Dawley rat assessed as change in bone marrow smears at 2.5 to 7.5 mg/kg, po administered once daily for 4 weeks and measured after 4 weeks; assay type: organism-based; settings: in vivo, 1344 h, dose 2.5-7.5 mg/kg, time 8 weeks
[34] = Toxicity in female Beagle dog assessed as change in body weight at 0.75 to 2.5 mg/kg, IG administered once daily for 4 weeks and measured after 4 weeks; assay type: organism-based, Canis lupus familiaris; settings: in vivo, po, 1344 h, dose 0.75-2.5 mg/kg, time 8 weeks
[35] = molecular target: Cytochrome P450 2C19 (Homo sapiens, UniProt P33261); test: Inhibition of CYP2C19 in human liver microsomes in presence of NADPH by LC-MS/MS analysis; assay type: ADME, Microsome
Chain of Cytochrome P450 2C19 (P33261 whole entry): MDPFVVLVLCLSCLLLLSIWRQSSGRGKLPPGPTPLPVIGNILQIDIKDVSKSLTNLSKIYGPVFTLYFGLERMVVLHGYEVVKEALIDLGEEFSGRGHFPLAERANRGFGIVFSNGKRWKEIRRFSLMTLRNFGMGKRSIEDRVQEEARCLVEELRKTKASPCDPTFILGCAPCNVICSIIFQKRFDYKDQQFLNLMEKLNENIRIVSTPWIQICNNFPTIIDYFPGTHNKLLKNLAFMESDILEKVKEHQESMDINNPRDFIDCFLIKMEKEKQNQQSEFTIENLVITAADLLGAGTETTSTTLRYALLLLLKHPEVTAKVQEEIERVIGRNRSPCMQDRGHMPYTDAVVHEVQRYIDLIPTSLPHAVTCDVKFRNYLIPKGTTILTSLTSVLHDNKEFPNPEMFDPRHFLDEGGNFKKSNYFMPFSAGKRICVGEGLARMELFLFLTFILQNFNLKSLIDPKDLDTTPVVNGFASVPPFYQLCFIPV

With `c1cc2c(s1)[C@@H]1CNCCN1CC2` the Activity [1] was -21.4%, the CLint scaled at 1 µM [2] was 6.8 mL/min/kg and the Activity [3] was “Non-toxic”. The IC50 [4] was greater than 50 µM, the Activity [5] was “Toxic” and the Activity [6] was “Toxic”. For the same compound, the Activity [7] was 33.7%, the CLint scaled at 1 µM [8] was less than 13.5 mL/min/kg and the Kp at 0.25 h [9] was 8.45. The Activity [10] was “Non-toxic”, the IC50 [11] was greater than 50 µM and the Activity [12] was 4.07%. The Activity [13] was “Non-toxic”, the Activity [14] was “Non-toxic” and the Activity [15] was “Active; More Effective Than Ulotaront”. The Activity [16] was “Non-toxic”, the Activity [17] was “Non-toxic” and the IC50 [18] was greater than 50 µM. The Activity [19] was “Non-toxic”, the Activity [20] was 45.3% and the Activity [21] was -12.2%. For the same compound, the Activity [22] was 28.9%, the Activity [23] was “Non-toxic” and the Activity [24] was “Non-toxic”. The activity at 10 µM [25] was 13.4%, the Activity [26] was “Non-toxic” and the Activity [27] was “Active”. For the same compound, the Activity [28] was “Non-toxic”, the Activity [29] was “Toxic” and the EC50 [30] was 0.0702 µM. The Activity [31] was “Toxic”, the Activity [32] was 5.02% and the Activity [33] was “Non-toxic”. For the same compound, the Activity [34] was “Non-toxic” and the IC50 [35] was greater than 50 µM.
